The values that follow come from patent US20210214375A1 (LUNDBECK LA JOLLA RESEARCH CENTER, INC., priority 2017, published 2021).

One may read the IC50 as the concentration that inhibits the measured activity by half.

In one assay the target is T1, MGLL (Mus musculus, UniProt O35678).
T1 construct: Brain; from tissue; host or cells: mouse brain proteome
T1 sequence (O35678 1-303): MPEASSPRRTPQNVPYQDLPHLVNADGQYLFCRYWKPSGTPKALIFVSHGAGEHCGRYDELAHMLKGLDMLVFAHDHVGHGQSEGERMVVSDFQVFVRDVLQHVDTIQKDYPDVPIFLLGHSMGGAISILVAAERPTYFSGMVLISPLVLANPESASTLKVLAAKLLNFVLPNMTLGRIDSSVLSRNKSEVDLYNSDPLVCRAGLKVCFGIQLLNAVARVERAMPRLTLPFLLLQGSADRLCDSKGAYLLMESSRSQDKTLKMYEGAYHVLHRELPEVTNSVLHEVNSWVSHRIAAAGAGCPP
Kind of assay: In vitro competitive activity-based protein profiling, mouse brain proteome. It is filed as biochemical. As to the method: [Worded in the source for another species; this species is reported under the same test.] (§1) Proteomes (human prefrontal cortex or cell membrane fractions) (50 μL, 1.0 mg/mL total protein concentration) were preincubated with varying concentrations of inhibitors at 37° C. After 30 min, FP—Rh or HT-01 (1.0 μL, 50 μM in DMSO) was added and the mixture was incubated for another 30 min at room temperature. Reactions were quenched with SDS loading buffer (15 μL-4×) and run on SDS-PAGE.

A further assay has as its target T2, ABHD6 (Mus musculus, UniProt Q8R2Y0).
T2 construct: Brain; from tissue; host or cells: mouse brain proteome
T2 sequence (Q8R2Y0 1-336): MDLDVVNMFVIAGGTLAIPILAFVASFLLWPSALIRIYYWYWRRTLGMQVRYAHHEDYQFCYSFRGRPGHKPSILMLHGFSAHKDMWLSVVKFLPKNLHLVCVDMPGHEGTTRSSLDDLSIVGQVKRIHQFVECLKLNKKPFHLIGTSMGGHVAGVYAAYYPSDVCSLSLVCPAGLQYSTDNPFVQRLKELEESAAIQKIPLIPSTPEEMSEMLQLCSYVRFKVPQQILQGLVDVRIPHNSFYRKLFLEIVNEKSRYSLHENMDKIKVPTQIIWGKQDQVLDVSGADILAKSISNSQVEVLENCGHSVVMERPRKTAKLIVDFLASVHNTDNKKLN
Kind of assay: In vitro competitive activity-based protein profiling, mouse brain proteome, ABHD6. As to conditions: mouse. The assay is classed as biochemical. Here is the method: [Worded in the source for another target; this target is reported under the same test.] as §1

The target in a further assay is T3, MAGL (Mus musculus, UniProt O35678).
T3 construct: from tissue; host or cells: brain of wild-type C57Bl/6J mice
T3 sequence (O35678 1-303): T1 sequence (O35678 1-303)
Kind of assay: Mouse brain proteomes from inhibitor treated mice (oral gavage, brain proteomes analyzed 4 h after administration). The assay is classed as in vivo, mouse (C57Bl/6J). The note with it: brain proteome 4 h after administration, read-out: % Inh 5 mg/kg MGLL (Mouse). The method in brief:
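Wild-type C57Bl/6J mice dosed orally in polyethylene glycol vehicle; brains removed 4 h post-dose and brain proteomes prepared and analysed for MAGL and serine hydrolase activity by previously established methods.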

Regarding `CS(=O)(=O)N1CCC2(CCN(c3cc(C(F)(F)F)ccc3CN3CCN(C(=O)OC(C(F)(F)F)C(F)(F)F)CC3)C2)CC1` [Example 196, 1,1,1,3,3,3-Hexafluoropropan-2-yl 4-(2-(8-(methylsulfonyl)-2,8-diazaspiro[4.5]decan-2-yl)-4-(trifluoromethyl)benzyl)piperazine-1-carboxylate], the values for the IC50 on MGLL and on ABHD6 were less than 100 nM and more than 1000 nM, respectively. The inhibition at 5 mg/kg at MAGL was not above 25%.
For the molecule `CC(=O)N1CCC2(CC1)CCN(c1cc(C(F)(F)F)ccc1CN1CCN(C(=O)OC(C(F)(F)F)C(F)(F)F)CC1)C2` [Example 197, 1,1,1,3,3,3-Hexafluoropropan-2-yl 4-(2-(8-acetyl-2,8-diazaspiro[4.5]decan-2-yl)-4-(trifluoromethyl)benzyl)piperazine-1-carboxylate], the figures for the IC50 on MGLL and on ABHD6 were less than 100 nM and more than 1000 nM, respectively. At MAGL, the inhibition at 5 mg/kg is not above 25%.
As to `CC(=O)N1CCC2(CC1)CN(c1cc(Cl)ccc1CN1CCN(C(=O)OC(C(F)(F)F)C(F)(F)F)CC1)C2` [Example 198, 1,1,1,3,3,3-Hexafluoropropan-2-yl 4-(2-(7-acetyl-2,7-diazaspiro[3.5]nonan-2-yl)-4-chlorobenzyl)piperazine-1-carboxylate], the IC50 on MGLL was less than 100 nM; at ABHD6, more than 1000 nM. In addition, at MAGL, the inhibition at 5 mg/kg was not below 75%.
Consider `CC(=O)N1CCC2(CC1)CN(c1cc(C(F)(F)F)ccc1CN1CCN(C(=O)OC(C(F)(F)F)C(F)(F)F)CC1)C2` [Example 199, 1,1,1,3,3,3-Hexafluoropropan-2-yl 4-(2-(7-acetyl-2,7-diazaspiro[3.5]nonan-2-yl)-4-(trifluoromethyl)benzyl)piperazine-1-carboxylate], for which the values for the IC50 at MGLL and on ABHD6 were less than 100 nM and more than 1000 nM, respectively. Also, the inhibition at 5 mg/kg at MAGL was not below 75%.
For `CS(=O)(=O)N1CC2(CCN(c3cc(C(F)(F)F)ccc3CN3CCN(C(=O)OC(C(F)(F)F)C(F)(F)F)CC3)CC2)C1` [Example 211, 1,1,1,3,3,3-Hexafluoropropan-2-yl 4-(2-(2-(methylsulfonyl)-2,7-diazaspiro[3.5]nonan-7-yl)-4-(trifluoromethyl)benzyl)piperazine-1-carboxylate], in that order: less than 100 nM, more than 1000 nM and not below 75%.
In the case of `CS(=O)(=O)N1CC2(CCN(c3cc(Cl)ccc3CN3CCN(C(=O)OC(C(F)(F)F)C(F)(F)F)CC3)CC2)C1` [Example 212, 1,1,1,3,3,3-Hexafluoropropan-2-yl 4-(4-chloro-2-(2-(methylsulfonyl)-2,7-diazaspiro[3.5]nonan-7-yl)benzyl)piperazine-1-carboxylate], the IC50 on MGLL is less than 100 nM; on ABHD6, more than 1000 nM. Also, at MAGL, the inhibition at 5 mg/kg is not below 75%.
Regarding `CC(=O)N1CC2(CCN(c3cc(Cl)ccc3CN3CCN(C(=O)OC(C(F)(F)F)C(F)(F)F)CC3)CC2)C1` [Example 213, 1,1,1,3,3,3-Hexafluoropropan-2-yl 4-(2-(2-acetyl-2,7-diazaspiro[3.5]nonan-7-yl)-4-chlorobenzyl) piperazine-1-carboxylate], the IC50 is less than 100 nM at MGLL and more than 1000 nM on ABHD6. The inhibition at 5 mg/kg on MAGL was not below 75%.
For `CS(=O)(=O)N1CCC2(CCN(c3cc(CN4CCCC45CN(C(=O)OC(C(F)(F)F)C(F)(F)F)C5)cc(C(F)(F)F)c3)CC2)C1` [Example 233, 1,1,1,3,3,3-Hexafluoropropan-2-yl 5-(3-(2-(methylsulfonyl)-2,8-diazaspiro[4.5]decan-8-yl)-5-(trifluoromethyl)benzyl)-2,5-diazaspiro[3.4]octane-2-carboxylate], the figures for the IC50 at MGLL and on ABHD6 were less than 100 nM and more than 1000 nM, respectively. Further, the inhibition at 5 mg/kg on MAGL was not above 25%.
